Experimental data as given in patent US20060018978A1, “Botanical compositions having hypoglycemic, hypolipidemic and antimicrobial activities for maintaining good health in normal person and diabetic patient” (priority 2004, published 2006).

Assays:
[1] = test system: Staphylococcus aureus ATCC 6538P; assay: Agar Diffusion Test, S. aureus; assay type: cell-based; details: mean ± S.E.M
Description: (§1) The dried plant extract is ground to fine powder and sieved to obtain uniform powder size and used for pharmaceutical preparation. […] (1991) Antibiotics in Laboratory Medicine, 3rd ed. The pathogenic microbes inhibited by the crude water extract of M. coromandelianum are Staphylococcus aureus, and Salmonella typhimurium. […] [table]

[2] = test system: Escherichia coli ATCC 25922; assay: Agar Diffusion Test, E. coli; assay type: cell-based; details: mean ± S.E.M
Description: as §1

[3] = test system: Salmonella typhimurium ATCC 14028; assay: Agar Diffusion Test, S. typhimurium; assay type: cell-based; details: mean ± S.E.M
Description: as §1

[4] = test system: Klebsiella pneumoniae ATCC 10031; assay: Agar Diffusion Test, K. pneumoniae; assay type: cell-based; details: mean ± S.E.M
Description: as §1

[5] = test system: Pseudomonas aeruginosa ATCC 9721; assay: Agar Diffusion Test, Ps. aeruginosa; assay type: cell-based; details: mean ± S.E.M
Description: as §1

[6] = test system: streptozotocin-induced diabetic rats; assay: Biochemical analysis of serum in diabetic rats at day 14 after daily feeding; assay type: in vivo, rat; details: day 14, Standard: injected 5 IU/Kg/day, mean ± S.E.M.

Substance	Diameter of inhibition zone ([1]; 10 μg/ml) [mm]	Diameter of inhibition zone ([1]; 20 μg/ml) [mm]	Diameter of inhibition zone ([2]; 10 μg/ml) [mm]	Diameter of inhibition zone ([2]; 20 μg/ml) [mm]	Diameter of inhibition zone ([3]; 10 μg/ml) [mm]	Diameter of inhibition zone ([3]; 20 μg/ml) [mm]	Diameter of inhibition zone ([4]; 10 μg/ml) [mm]	Diameter of inhibition zone ([4]; 20 μg/ml) [mm]	Diameter of inhibition zone ([5]; 10 μg/ml) [mm]	Diameter of inhibition zone ([5]; 20 μg/ml) [mm]	Cholesterol [6] [mg %]	Glucose [6] [mg %]	Triglycerides [6] [mg %]
Gentamicin	10.00 ± 0.00	12.77 ± 0.14	1.56 ± 0.07	3.78 ± 0.07	14.28 ± 0.07	15.88 ± 0.141	16.9 ± 0.00	26.57 ± 0.28	8.1 ± 0.00	12.8 ± 0.14	–	–	–
Insulin	–	–	–	–	–	–	–	–	–	–	225.96 ± 5.51	409.85 ± 12.52	388.10 ± 61.85
